Results on five compounds are retold here after article PMC10303271, “Synthesis and Receptor Binding Studies of α5 GABAAR Selective Novel Imidazodiazepines Targeted for Psychiatric and Cognitive Disorders” (Molecules, 2023).

The target of one assay is T1, MOR (Homo sapiens, UniProt P35372).
T1 construct: purchased NIMH Psychoactive Drug Screening Program (PDSP)
In words: PDSP radioligand binding at MOR. The following applies: 1.5 h. An excerpt: Opioid receptors are a family of inhibitory G-coupled protein receptors where opioids act as the ligand. The kappa opioid receptors (KOR), µ and δ opioid receptors (MOR and DOR), and nociception opioid receptor (NOP) fall under the family of opioids receptors. It has been reported that oxadiazole imidazodiazepines can mediate analgesic and anti-inflammatory properties mediated also by the κ opioid receptor (KOR). The binding at KOR is usually silent. The affinities of the test compounds for KOR, DOR, and MOR were determined using radioligand binding assays at a screening concentration of 10,000 nM in collaboration with the National Institute of Mental Health’s Psychoactive Drug Screening Program (PDSP), as mentioned before. Concentration-dependent experiments were conducted to determine Ki values for the compounds that exceeded more than 50% radioligand displacement in primary binding assays.
(§1) The NIMH PDSP assay protocol book [https://kidbdev.med.unc.edu/databases/PDSP%20Protocols%20II%202013-03-28.pdf accessed on 23 April 2023]. describes the protocols for primary and secondary radio-ligand binding assays. These assays were carried out in a final volume of 125 µL per well in the appropriate binding buffer.
(§2) The binding of a ligand to a receptor, ion channel, or transporter was determined in the […] of 10 µM of the appropriate reference compound. […] Plates were incubated in the dark for 90 min at rt, and the reactions were stopped by vacuum filtration onto 0.3% polyethyleneimine (PEI) soaked 96-well filter mats using a 96-well Filtermateharvester. This was followed by three washes with cold PBS buffer. Radioactivity was then counted on a Microbeta counter. Nonlinear regression was used to analyze the data with N = 6 replicates.

The target of another assay is T2, Alpha1D (Homo sapiens, UniProt P25100).
T2 construct: purchased NIMH Psychoactive Drug Screening Program (PDSP)
T2 sequence (P25100 1-572): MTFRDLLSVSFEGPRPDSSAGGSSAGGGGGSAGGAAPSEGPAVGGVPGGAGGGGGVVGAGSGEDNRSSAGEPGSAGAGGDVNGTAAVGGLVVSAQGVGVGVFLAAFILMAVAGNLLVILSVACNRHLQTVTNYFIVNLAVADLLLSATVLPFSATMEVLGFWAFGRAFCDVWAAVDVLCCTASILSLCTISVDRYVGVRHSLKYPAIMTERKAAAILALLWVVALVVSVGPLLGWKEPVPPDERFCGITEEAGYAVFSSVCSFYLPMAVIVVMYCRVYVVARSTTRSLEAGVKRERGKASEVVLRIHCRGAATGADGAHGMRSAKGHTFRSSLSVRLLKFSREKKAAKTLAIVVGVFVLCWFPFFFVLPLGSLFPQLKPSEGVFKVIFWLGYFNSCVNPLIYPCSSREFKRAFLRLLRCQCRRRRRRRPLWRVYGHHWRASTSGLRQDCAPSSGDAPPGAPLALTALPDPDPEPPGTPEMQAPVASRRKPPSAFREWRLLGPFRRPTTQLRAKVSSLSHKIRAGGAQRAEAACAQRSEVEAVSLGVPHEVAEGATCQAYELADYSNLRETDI
In words: PDSP primary binding Alpha1D. The following applies: 1.5 h; primary binding, 10,000 nM; last figure of the line = mean of the 4 before it; read-out: Alpha1D, PDSP raw data, mean. The protocol:
(§3) To determine if any off-target receptor-binding effects are present, all the novel ligands were sent to the National Institute of Mental Health (NIMH), Psychoactive Drug Screening Program (PDSP). The ligands were screened over a panel of 47 receptors, ion channels, and transporters to determine any other possible interactions with […]. The hERG-binding was also determined. […] No binding of the test compounds to calcium channels was observed. […] It is necessary to screen the compounds for hERG-binding during the early process of drug discovery. The unintentional binding of many drugs to hERG can cause blockade of hERG K+ channels in the heart, which can cause many side effects including cardiac arrhythmias and sudden death. […] All of the α5 imidazodiazepines were tested for hERG-binding.
as §1, §2

For a further assay, the target named is T3, Beta1 (Homo sapiens, UniProt P08588).
T3 construct: purchased NIMH Psychoactive Drug Screening Program (PDSP)
T3 sequence (P08588 whole entry): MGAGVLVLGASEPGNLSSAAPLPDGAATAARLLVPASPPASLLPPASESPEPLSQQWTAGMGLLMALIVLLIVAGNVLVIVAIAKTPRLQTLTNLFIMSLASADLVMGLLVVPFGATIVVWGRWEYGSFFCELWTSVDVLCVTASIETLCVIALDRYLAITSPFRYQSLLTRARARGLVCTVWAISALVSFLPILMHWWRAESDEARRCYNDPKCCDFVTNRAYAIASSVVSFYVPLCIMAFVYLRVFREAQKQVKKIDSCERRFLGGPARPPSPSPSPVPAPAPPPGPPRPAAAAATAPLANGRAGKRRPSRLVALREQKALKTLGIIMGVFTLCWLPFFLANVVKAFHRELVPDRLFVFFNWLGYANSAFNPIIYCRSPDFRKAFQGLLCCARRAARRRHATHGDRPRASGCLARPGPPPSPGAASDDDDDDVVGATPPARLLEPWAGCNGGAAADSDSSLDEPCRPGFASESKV
In words: PDSP primary binding Beta1. The following applies: 1.5 h; primary binding, 10,000 nM; last figure of the line = mean of the 4 before it; read-out: Beta1, PDSP raw data, mean. The protocol: as §3, §1, §2

For another assay, the target named is T4, H1 (Homo sapiens, UniProt P35367).
T4 construct: purchased NIMH Psychoactive Drug Screening Program (PDSP)
T4 sequence (P35367 whole entry): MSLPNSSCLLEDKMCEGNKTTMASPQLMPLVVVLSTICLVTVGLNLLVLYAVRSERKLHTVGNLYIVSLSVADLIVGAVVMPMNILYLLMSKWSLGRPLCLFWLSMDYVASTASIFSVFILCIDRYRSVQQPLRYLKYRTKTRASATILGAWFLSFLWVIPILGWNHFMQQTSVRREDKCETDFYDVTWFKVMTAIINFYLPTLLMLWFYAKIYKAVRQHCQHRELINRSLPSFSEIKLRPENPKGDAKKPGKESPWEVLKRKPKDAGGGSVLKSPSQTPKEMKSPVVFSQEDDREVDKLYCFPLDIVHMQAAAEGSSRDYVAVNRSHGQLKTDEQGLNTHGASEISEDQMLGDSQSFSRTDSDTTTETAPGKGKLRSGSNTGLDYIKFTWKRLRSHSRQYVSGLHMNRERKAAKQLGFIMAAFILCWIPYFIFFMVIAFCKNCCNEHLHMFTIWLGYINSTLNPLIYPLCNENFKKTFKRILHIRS
In words: PDSP primary binding H1. The following applies: primary binding, 10,000 nM; last figure of the line = mean of the 4 before it; read-out: H1, PDSP raw data, mean. The procedure:
as §3, §1, §2

Another assay deals with T5, M1 (Homo sapiens, UniProt P11229).
T5 construct: purchased NIMH Psychoactive Drug Screening Program (PDSP)
T5 sequence (P11229 1-460): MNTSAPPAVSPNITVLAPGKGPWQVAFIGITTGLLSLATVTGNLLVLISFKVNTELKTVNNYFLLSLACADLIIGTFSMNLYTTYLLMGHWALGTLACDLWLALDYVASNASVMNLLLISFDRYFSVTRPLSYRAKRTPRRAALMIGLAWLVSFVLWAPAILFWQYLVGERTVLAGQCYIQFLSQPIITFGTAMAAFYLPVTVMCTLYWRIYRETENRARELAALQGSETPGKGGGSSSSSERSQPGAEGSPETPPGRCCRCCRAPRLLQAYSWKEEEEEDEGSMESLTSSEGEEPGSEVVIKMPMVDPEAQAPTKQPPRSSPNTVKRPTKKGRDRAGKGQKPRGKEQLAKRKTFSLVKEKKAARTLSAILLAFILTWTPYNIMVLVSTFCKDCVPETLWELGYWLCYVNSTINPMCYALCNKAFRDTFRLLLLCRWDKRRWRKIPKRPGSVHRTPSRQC
In words: PDSP primary binding M1. The following applies: primary binding, 10,000 nM; last figure of the line = mean of the 4 before it; read-out: M1, PDSP raw data, mean. The procedure: as §3, §1, §2

The next assay addresses T6, NET (Homo sapiens, UniProt P23975).
T6 construct: purchased NIMH Psychoactive Drug Screening Program (PDSP)
In words: PDSP primary binding NET. The following applies: primary binding, 10,000 nM; last figure of the line = mean of the 4 before it; read-out: NET, PDSP raw data, mean. The procedure: as §3, §1, §2

A further assay concerns Sigma 2. In words: PDSP primary binding Sigma 2. The following applies: primary binding, 10,000 nM; last figure of the line = mean of the 4 before it. The procedure:
as §3, §1, §2

Another assay relates to AMPA. In words: PDSP primary binding AMPA. The following applies: primary binding, 10,000 nM; last figure of the line = mean of the 4 before it. The protocol: as §3, §1, §2
For another assay, the system named is NMDA. In words: PDSP primary binding NMDA. The following applies: primary binding, 10,000 nM; last figure of the line = mean of the 4 before it. The protocol:
as §3, §1, §2

For another assay, the system named is NR2B. In words: PDSP primary binding NR2B. The following applies: primary binding, 10,000 nM; last figure of the line = mean of the 4 before it. The protocol: as §3, §1, §2
In a further assay the target is T7, Alpha3Beta4 (Rattus norvegicus, UniProt P04757+P12392).
T7 construct: purchased NIMH Psychoactive Drug Screening Program (PDSP)
T7 sequence (P04757 26-499): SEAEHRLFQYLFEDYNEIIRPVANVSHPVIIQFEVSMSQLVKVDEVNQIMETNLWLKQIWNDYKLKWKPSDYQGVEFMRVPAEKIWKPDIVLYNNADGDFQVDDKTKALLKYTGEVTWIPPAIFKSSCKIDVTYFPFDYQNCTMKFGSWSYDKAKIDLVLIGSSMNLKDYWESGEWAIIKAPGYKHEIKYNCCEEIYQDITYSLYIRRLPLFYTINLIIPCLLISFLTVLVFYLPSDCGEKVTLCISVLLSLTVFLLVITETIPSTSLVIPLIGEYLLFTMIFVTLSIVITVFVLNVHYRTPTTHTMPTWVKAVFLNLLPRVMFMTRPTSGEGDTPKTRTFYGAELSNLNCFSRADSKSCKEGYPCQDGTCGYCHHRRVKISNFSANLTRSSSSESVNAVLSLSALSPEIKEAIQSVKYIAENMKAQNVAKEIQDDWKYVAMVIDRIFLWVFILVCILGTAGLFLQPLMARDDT
T7 sequence (P12392 21-495): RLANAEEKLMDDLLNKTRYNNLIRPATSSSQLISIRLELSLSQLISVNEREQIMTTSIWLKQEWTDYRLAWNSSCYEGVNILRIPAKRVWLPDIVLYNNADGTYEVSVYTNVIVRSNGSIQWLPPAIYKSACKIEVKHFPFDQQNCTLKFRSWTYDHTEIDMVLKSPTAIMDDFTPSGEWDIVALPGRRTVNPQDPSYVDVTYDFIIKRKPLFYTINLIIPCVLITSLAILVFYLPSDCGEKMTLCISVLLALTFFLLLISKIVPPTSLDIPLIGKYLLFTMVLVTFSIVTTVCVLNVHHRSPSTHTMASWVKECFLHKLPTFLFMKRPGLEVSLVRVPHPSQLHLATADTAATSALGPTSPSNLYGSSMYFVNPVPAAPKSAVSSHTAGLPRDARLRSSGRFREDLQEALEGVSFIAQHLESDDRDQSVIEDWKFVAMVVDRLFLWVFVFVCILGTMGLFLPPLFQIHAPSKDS
In words: PDSP primary binding Alpha3Beta4. The following applies: primary binding, 10,000 nM; last figure of the line = mean of the 4 before it; read-out: Alpha3Beta4, PDSP raw data, mean. The procedure:
as §3, §1, §2

Setting [1] is: at 10,000 nM, N = 5, [3H]-DAMGO 1.20 nM, read-out: Primary Binding %MOR.
Setting [2] is: primary binding, 10,000 nM, last figure of the line = mean of the 4 before it, read-out: MOR, PDSP raw data, mean.

Like-named read-outs stand apart in the source and are kept apart here.

T6 sequence (P23975 whole entry): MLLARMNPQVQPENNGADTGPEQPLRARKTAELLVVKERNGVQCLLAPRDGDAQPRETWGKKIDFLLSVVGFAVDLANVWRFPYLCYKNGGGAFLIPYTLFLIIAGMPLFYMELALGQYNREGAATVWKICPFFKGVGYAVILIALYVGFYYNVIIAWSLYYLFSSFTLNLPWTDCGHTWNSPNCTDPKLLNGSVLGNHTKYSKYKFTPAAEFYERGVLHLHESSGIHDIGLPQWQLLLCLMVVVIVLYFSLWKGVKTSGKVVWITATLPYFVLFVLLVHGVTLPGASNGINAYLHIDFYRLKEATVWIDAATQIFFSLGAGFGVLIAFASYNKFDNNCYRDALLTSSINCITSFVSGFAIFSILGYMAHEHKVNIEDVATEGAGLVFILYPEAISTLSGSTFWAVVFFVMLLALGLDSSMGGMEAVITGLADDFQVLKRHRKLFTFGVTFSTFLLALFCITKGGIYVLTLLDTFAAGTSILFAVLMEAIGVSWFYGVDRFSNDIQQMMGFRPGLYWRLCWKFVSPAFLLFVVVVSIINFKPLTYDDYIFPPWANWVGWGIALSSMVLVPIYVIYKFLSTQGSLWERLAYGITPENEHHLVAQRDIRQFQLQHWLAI
T1 sequence (P35372 whole entry): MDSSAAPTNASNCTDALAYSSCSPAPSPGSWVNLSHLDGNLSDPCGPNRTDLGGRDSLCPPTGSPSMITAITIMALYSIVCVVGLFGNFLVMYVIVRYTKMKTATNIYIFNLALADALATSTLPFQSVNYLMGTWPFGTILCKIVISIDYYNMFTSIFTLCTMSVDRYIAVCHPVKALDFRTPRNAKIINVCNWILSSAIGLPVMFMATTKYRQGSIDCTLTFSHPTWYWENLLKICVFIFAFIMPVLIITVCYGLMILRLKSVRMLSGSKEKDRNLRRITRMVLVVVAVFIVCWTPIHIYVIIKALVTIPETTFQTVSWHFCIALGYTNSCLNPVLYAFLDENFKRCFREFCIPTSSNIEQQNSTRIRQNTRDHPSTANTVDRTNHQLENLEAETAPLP

On to `C[C@H]1N=C(c2ccccc2F)c2cc(Cl)ccc2-n2cnc(-c3nc(C4CC4)no3)c21` [Compound 38, (R)-5-(8-Chloro-6-(2′-fluorophenyl)-4-methyl-4H-benzo[f]imidazo[1,5-a][1,4]diazepin-3-yl)-3-cyclopropyl-1,2,4-oxadiazole], for which the inhibition at 10 µM on MOR (setting [1]) was 30.2 ± 6.46%; on MOR (setting [2]) it was 30.2%; on Alpha1D, -2.84%; at Beta1, 9.95%; at H1, 58.4%; at M1, -0.23%. The inhibition at 10 µM at NET is -0.22%; on Alpha3Beta4, 12.4%. For the same compound, the “Sigma 2, PDSP raw data, mean” value in the assay on Sigma 2 stood at 80.86%. Further, the “AMPA, PDSP raw data, mean” value in the assay on AMPA was found to be 21.42%. Moreover, the “NMDA, PDSP raw data, mean” value in the assay on NMDA was 65.22%. In addition, in the assay on NR2B, the “NR2B, PDSP raw data, mean” value turned out to be 31.49%.

Regarding `C[C@H]1N=C(c2ccccc2F)c2cc(-c3ccccc3)ccc2-n2cnc(C(=O)N(C)C)c21` [Compound 5, (R)-6-(2′-Fluorophenyl)-N,N,4-trimethyl-8-phenyl-4H-benzo[f]imidazo[1,5-a][1,4]diazepine-3-carboxamide], the inhibition at 10 µM at MOR (setting [1]) is -11.2 ± 5.72%; on MOR (setting [2]), -11.2%; at Alpha1D, 3.57%; at Beta1, -15.8%; on H1, -10.4%; on M1, -1.6%. Besides, the inhibition at 10 µM on NET was -6%; at Alpha3Beta4, -0.77%. Moreover, the “Sigma 2, PDSP raw data, mean” value with Sigma 2 was determined as 43.63%. For the same compound, in the assay with AMPA, the “AMPA, PDSP raw data, mean” value is recorded as 7.77%. Also, the “NMDA, PDSP raw data, mean” value with NMDA is reported as 43.17%. In addition, in the assay with NR2B, the “NR2B, PDSP raw data, mean” value was found to be 3.79%.

Turning to `CC(C)c1noc(-c2ncn3c2[C@@H](C)N=C(c2ccccc2F)c2cc(Cl)ccc2-3)n1` [Compound 37, (R)-5-(8-Chloro-6-(2′-fluorophenyl)-4-methyl-4H-benzo[f]imidazo[1,5-a][1,4]diazepin-3-yl)-3-isopropyl-1,2,4-oxadiazole], the inhibition at 10 µM is 48.6 ± 4.17% at MOR (setting [1]); 48.6% on MOR (setting [2]); 4.09% on Alpha1D; 8.14% on Beta1; 59% on H1; -0.48% at M1. Besides, the inhibition at 10 µM on NET was found to be 9.04%; at Alpha3Beta4, 18.8%. Besides, the “Sigma 2, PDSP raw data, mean” value in the assay with Sigma 2 is 76.17%. Moreover, in the assay on AMPA, the “AMPA, PDSP raw data, mean” value was 20.59%. Besides, the “NMDA, PDSP raw data, mean” value in the assay with NMDA came out at 54.13%. Besides, the “NR2B, PDSP raw data, mean” value with NR2B was found to be 34.46%.

`CCc1noc(-c2ncn3c2[C@@H](C)N=C(c2ccccc2F)c2cc(Cl)ccc2-3)n1` [Compound 36, (R)-5-(8-Chloro-6-(2′-fluorophenyl)-4-methyl-4H-benzo[f]imidazo[1,5-a][1,4]diazepin-3-yl)-3-ethyl-1,2,4-oxadiazole]: the inhibition at 10 µM on MOR (setting [1]) is 19.2 ± 5.47%; on MOR (setting [2]), 19.2%; on Alpha1D it was -14.3%; on Beta1 it was -14.7%; on H1, 7.7%; on M1, -0.27%. The inhibition at 10 µM on NET was -2.36%; on Alpha3Beta4, 15.6%. Also, the “Sigma 2, PDSP raw data, mean” value in the assay with Sigma 2 was found to be 81.41%. Moreover, the “AMPA, PDSP raw data, mean” value in the assay on AMPA was -24.14%. For the same compound, in the assay with NMDA, the “NMDA, PDSP raw data, mean” value amounted to 55.6%. In addition, the “NR2B, PDSP raw data, mean” value in the assay on NR2B was determined as 14.42%.

For the compound `CCc1noc(-c2ncn3c2CN=C(c2ccccc2F)c2cc(C4CC4)ccc2-3)n1` [Compound 44, 5-(8-Cyclopropyl-6-(2′-fluorophenyl)-4H-benzo[f]imidazo[1,5-a][1,4]diazepin-3-yl)-3-ethyl-1,2,4-oxadiazole], the inhibition at 10 µM is 26.4 ± 6.01% at MOR (setting [1]); 26.4% on MOR (setting [2]); 1.28% on Alpha1D; -5.19% on Beta1; 16.3% on H1; 9.28% on M1. Moreover, the inhibition at 10 µM was 4.9% at NET and 7.56% on Alpha3Beta4. Also, the “Sigma 2, PDSP raw data, mean” value in the assay with Sigma 2 was 74.98%. In addition, the “AMPA, PDSP raw data, mean” value in the assay on AMPA is listed as -9.33%. Besides, the “NMDA, PDSP raw data, mean” value in the assay with NMDA turned out to be 20.03%. For the same compound, the “NR2B, PDSP raw data, mean” value in the assay with NR2B was found to be 21.74%.
